Experimental data reported in patent US20070286890A1, “Eyelash applicator and method” (priority 2006, published 2007).

Test system: eyelashes of healthy female volunteers
Assay: Open-label study of Lumigan applied with an applicator to the upper eyelid margin, four months
Assay type: in vivo, human
[1] = one drop on applicator tip, applied to lid margin of both upper eyelids before bedtime, through week 12, 25 volunteers, no controls, preliminary findings

SMILES: CCNC(=O)CCC/C=C\C[C@@H]1[C@@H](/C=C/[C@@H](O)CCc2ccccc2)[C@H](O)C[C@@H]1O [Lumigan®, cyclopentane N-ethyl heptanamide-5-cis-2-(3α-hydroxy-5-phenyl-1trans-pentenyl)-3,5-dihydroxy, [1α,2β,3α,5α]]
- Darker and thicker lashes, additional lashes [1]: many grew darker and thicker lashes as well as additional lashes
- Eyelash length (longer lashes) [1]: Every participant grew longer lashes
- Growth of lower lid lashes and eyebrow hairs (patients applied Lumigan "on their own" to these areas): grew lower lid lashes and eyebrow hairs
- Side effects (vision, IOP, ocular irritation, periocular pigmentary changes) (topical application to upper eyelid margin, through week 12, visits up to week 16, preliminary findings): Minimal Side Effects
